The source of these data is patent US20200016076A1, “COMPOSITION FOR THE TREATMENT OF DUCHENNE MUSCULAR DYSTROPHY” (Summit (Oxford) Limited, priority 2016, published 2020).

In brackets after ≈: the same amount, converted by molar mass.

Series [1] is described as follows: Solubility of ezutromid Form I polymorph in pharmaceutically-acceptable solvents at 20° C. (HPLC of saturated solutions). Conditions: 1-propanol; 4 hours equilibration. In kind it is physicochemical. How it is done:
In each case, about 25 mg of drug substance was allowed to equilibrate with 250 μL of solvent over 4 hours. The resulting saturated solutions were filtered and analysed by HPLC.

Series [2] deals with mouse models of DMD. Conditions: with corticosteroids including prednisone, prednisolone and deflazacort; WO2009/019504; cited from earlier work.
Series [3] is described as follows: Gravimetric vapour sorption analysis. In kind it is physicochemical. The text has this: Form I was subjected to gravimetric vapour sorption analysis, ramping profile from 0 to 90% RH at 10% RH increments.

For the molecule `CCS(=O)(=O)c1ccc2oc(-c3ccc4ccccc4c3)nc2c1` [ezutromid, 5-(ethylsulfonyl)-2-(naphthalen-2-yl)benzo[d]oxazole], in series [1], the “Solubility at 20° C.” value is 790 µg/mL (≈ 2340 µM). Further, the “Reduction of exercise-induced fatigue with corticosteroids” value in series [2] is reported as “acts in synergy with corticosteroids”. Also, the Hygroscopicity entry in series [3] (based on gravimetric vapour sorption) was “not hygroscopic”. Besides, in series [3] (up to 90% RH, 0 to 90% RH at 10% RH increments), the Moisture absorbed result is given as “no more than 0.25 % by weight”.

The Solubility is how much of the substance goes into solution per volume.
